{
  "source": "paper PMC9790248",
  "about": "“Effects of CYP3A Inhibition, CYP3A Induction, and Gastric Acid Reduction on the Pharmacokinetics of Ripretinib, a Switch Control KIT Tyrosine Kinase Inhibitor” (Clinical Pharmacology in Drug Development, 2022)",
  "key": {"CYP2D6": {"molecular_target": "T1, CYP2D6 (Homo sapiens, UniProt P10635)", "T1 construct": "with human liver microsomes (0.5 mg protein/mL) for 30 minutes; from tissue; host or cells: human liver microsomes", "T1 sequence (P10635 whole entry, canonical isoform)": "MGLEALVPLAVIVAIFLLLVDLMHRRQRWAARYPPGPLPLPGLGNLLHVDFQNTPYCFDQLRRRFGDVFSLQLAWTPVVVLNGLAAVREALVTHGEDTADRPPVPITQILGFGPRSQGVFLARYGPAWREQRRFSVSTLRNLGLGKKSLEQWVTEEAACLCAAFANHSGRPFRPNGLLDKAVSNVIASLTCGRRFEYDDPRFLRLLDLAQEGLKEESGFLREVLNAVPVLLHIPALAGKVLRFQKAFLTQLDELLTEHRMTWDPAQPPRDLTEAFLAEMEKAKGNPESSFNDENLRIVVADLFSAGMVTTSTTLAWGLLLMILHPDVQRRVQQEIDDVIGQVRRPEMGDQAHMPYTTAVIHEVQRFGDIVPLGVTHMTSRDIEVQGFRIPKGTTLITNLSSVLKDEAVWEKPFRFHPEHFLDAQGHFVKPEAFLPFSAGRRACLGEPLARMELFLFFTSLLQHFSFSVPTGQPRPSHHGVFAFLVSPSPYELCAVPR", "test": "Human liver microsomes with chemical inhibitors", "format": "in vitro ADME", "protocol": "In vitro studies with recombinant human cytochrome P450 isoforms (CYPs) and human liver microsomes (with chemical inhibitors) indicate that CYP3A4/5 plays a major role in the metabolism of ripretinib (data on file). When incubated with a panel of recombinant human CYPs, ripretinib (0.1 or 1 μM) disappeared in the presence of CYP3A4 (87.8%–100%), CYP2D6 (97.7%–100%), CYP2C8 (71.2% and 18.9%, respectively), and CYP2C19 (15.7% and 6.7%, respectively)."}, "[1]": {"conditions": "cited from earlier work"}, "[2]": {"conditions": "20 mg once daily up to 150 mg once daily"}},
  "data": [
    {"molecule": "CCn1c(=O)c(-c2cc(NC(=O)Nc3ccccc3)c(F)cc2Br)cc2cnc(NC)cc21", "note": "[Ripretinib]", "values": [
      {"measurement": "Inhibition of metabolism of ripretinib on inhibition of CYP2D6", "setting": "CYP2D6; human liver microsomes, metabolism-dependent inhibitor paroxetine", "value": 16, "unit": "%"},
      {"measurement": "Decrease in metabolism of ripretinib on inhibition of CYP2D6", "setting": "CYP2D6; ripretinib 0.1 μM, human liver microsomes 0.5 mg protein/mL, 30 minutes, with quinidine", "value": "≤ 26", "unit": "%"},
      {"measurement": "Dose proportionality of AUC", "setting": "[1]; [2]", "value": "generally proportional to dose"},
      {"measurement": "Dose proportionality of Cmax", "setting": "[1]; [2]", "value": "less than dose proportional"},
      {"measurement": "Time to maximum plasma concentrations", "setting": "[1]; cancer patients, after a single dose", "value": "approximately 4 hours"},
      {"measurement": "Time to reach steady-state conditions", "setting": "[1]; cancer patients", "value": "≤ 14", "unit": "days"},
      {"measurement": "Accumulation ratio", "setting": "[1]; once-daily dosing of 150 mg", "value": "approximately 1.7"},
      {"measurement": "Maximum tolerated dose", "setting": "[1]; patients with cancer, doses up to ripretinib 200 mg twice daily", "value": "not reached"},
      {"measurement": "Steady-state PK exposure, 150 mg twice daily compared with 150 mg once daily", "setting": "[1]; patients", "value": "approximately 2 fold"}
    ]}
  ]
}
